US11084829B2, “Ubiquitin-specific-processing protease 7 (USP7) modulators and uses thereof” (RAPT THERAPEUTICS, INC., priority 2018, dated 2021)
Read-outs that look alike come from different tables or passages of the source.

Experiments:
SK-N-DZ = experiment: Cell viability (CellTiter-Glo), SK-N-DZ; type: cell-based; details: Homo sapiens, neuroblastoma, MYCN-amplified, p53-mutant
Experimental: (§1) CHP-134 was purchased from Sigma Aldrich, MOLM-13 was purchased from AddexBio, and NB-1 was purchased from Sekisui XenoTech. All other cell lines were purchased from American Type Culture Collection. For all cell lines, identity was confirmed by short tandem repeat profiling and culturing was performed in recommended growth medium. For studies evaluating cellular effects of compound treatment, 250 to 2,000 cells in 40 μl of recommended medium were seeded per well in 384-well plates (Corning 3764). DMSO-solubilized compounds were added in duplicate in a two-fold dilution series using a D300e Digital Dispenser (Hewlett-Packard). Following a 5-day incubation, cell viability was measured using CellTiter-Glo (Promega) following the manufacturer's instructions. Luminescence was measured using a CLARIOstar plate reader (BMG LABTECH) and normalized to that of DMSO-treated cells. IC50 values were determined by non-linear regression using a 4-parameter fit in Prism (GraphPad Software). Inhibitor profiling of the 430-cell line panel was conducted and analyzed similarly.
(§2) In addition to the many p53 wild-type cell lines in the cell line panel that were sensitive to USP7 inhibition, a subset of p53 mutant cell lines that were inhibited by our USP7 inhibitors were identified and are shown in Table 5.

EOL-1 = experiment: Cell viability (CellTiter-Glo), EOL-1; type: cell-based; details: Homo sapiens, EOL1; EOL-1, AML, p53 wild-type
Experimental: as §1
(§3) USP7 inhibition by the compounds of Examples 31 and 124 reduced the viability of several p53-wild type blood cancer cell lines, including M07e, OCI-AML5 and MOLM13, in vitro as shown in the following Table 3. Idasanutlin was used as a positive control, and as expected these cell lines were also sensitive to this compound.

NCI-H929 = experiment: Cell viability (CellTiter-Glo), NCI-H929; type: cell-based; details: Homo sapiens; NCI-H929, MM, p53 wild-type
Experimental: as §1, §3

MOLP8 = experiment: Cell viability (CellTiter-Glo), MOLP8; type: cell-based; details: Homo sapiens, MOLP-8; MOLP8, MM, p53 wild-type
Experimental: as §1, §3

MM.1S = experiment: Cell viability (CellTiter-Glo), MM.1S; type: cell-based; details: Homo sapiens, MM1.S, p53 wild-type
Experimental: as §1, §3

LA-N-2 = experiment: Cell viability (CellTiter-Glo), LA-N-2; type: cell-based; details: LA-N-2, neuroblastoma, MYCN-amplified, p53-mutant
Experimental: as §1, §2

NB-1 = experiment: Cell viability (CellTiter-Glo), NB-1; type: cell-based; details: Homo sapiens, NB1; NB-1, neuroblastoma, MYCN amplified, p53 wild-type
Experimental: as §1
(§4) USP7 has been reported to stabilize MYCN (also referred to as MYCN proto-oncogene, a gene that is a member of the MYC family which is over-expressed in a variety of tumors). Since MYCN amplification is an established driver mutation in neuroblastoma, the effect of USP7 inhibition on a panel of p53 wild-type, MYCN- or MYC-amplified neuroblastoma cell lines was tested. The USP7 inhibitors of Examples 31 and 124 reduced viability of all three MYCN-amplified and two MYC-amplified neuroblastoma cell lines tested as shown in Table 4. Idasanutlin was used as a positive control, and as expected these cell lines were also sensitive to this compound.

H526 = experiment: Cell viability (CellTiter-Glo), H526; type: cell-based; details: Homo sapiens, NCI-H526
Experimental: as §1, §2
(§5) The effect of pharmacological inhibition of USP7 on the viability of the p53 mutant small cell lung cancer cell line, H526 was further evaluated. […] In contrast, idasanutlin, whose inhibitory effect is dependent on a functional p53 pathway, had no effect.

OCI-AML5 = experiment: Cell viability (CellTiter-Glo), OCI-AML5; type: cell-based; details: Homo sapiens, OCI-AML-5, p53 wild-type
Experimental: as §1, §3

MOLM13 = experiment: Cell viability (CellTiter-Glo), MOLM13; type: cell-based; details: Homo sapiens, MOLM-13; MOLM13, AML, p53 wild-type
Experimental: as §1, §3

M07e = experiment: Cell viability (CellTiter-Glo), M07e; type: cell-based; details: M-07e, AML, p53 wild-type
Experimental: as §1, §3

MM.1S xenograft = MM.1S xenograft model in NOD-SCID mice; type: in vivo
Experimental: (§6) MM. 1S and H526 xenograft studies were conducted according to the guidelines approved by the Applicant's Institutional Animal Care and Use Committee (IACUC). MM.1S cells were inoculated in PBS into irradiated NOD/SCID mice, while H526 cells were inoculated in PBS/Matrigel (Corning) into Nu/Nu mice (Jackson Laboratories). Mice were randomized into groups when mean tumor size reached 150 mm^3 (MM.1S) or 50-100 mm^3 (H526), respectively, and drug administration by oral gavage was started on day of randomization. Tumor volumes and body weights were subsequently measured twice per week. Tumor volumes were calculated using the formula: V=0.5(A×B^2), where A and B are the long and short diameters of the tumor, respectively.
(§7) The effects of USP7 inhibition were assessed in vivo in the MM.1S xenograft model in NOD-SCID mice via daily oral dosing of the USP7 inhibitor 3-((7-(5-chloro-2-(((2S,6S)-2,6-dimethylpiperazin-1-yl)methyl)-3-methylphenyl)thieno[3,2-b]pyridin-2-yl)methyl)-3-azabicyclo[3.1.0]hexane-2,4-dione (the compound of Example 31) at 50 mg/kg and 100 mg/kg. […] However, brief dosing holidays allowed the mice to recover and dosing to continue.

SH-SY5Y = experiment: Cell viability (CellTiter-Glo), SH-SY5Y; type: cell-based; details: Homo sapiens, neuroblastoma, MYC amplified, p53 wild-type
Experimental: as §1, §4

[1] = Tolerability in tumor-free NOD-SCID mice; type: in vivo; details: daily oral 50 mg/kg and 100 mg/kg, preliminary experiments
Experimental: as §7

HCC1937 = experiment: Cell viability (CellTiter-Glo), HCC1937; type: cell-based; details: Homo sapiens; HCC1937, breast, triple-negative, BRCA1 mutant, p53-mutant
Experimental: as §1, §2

USP7 = USP7 (Homo sapiens, UniProt Q93009); experiment: USP7 inhibitory potency (IC50); type: biochemical
USP7, sequence (Q93009 whole entry): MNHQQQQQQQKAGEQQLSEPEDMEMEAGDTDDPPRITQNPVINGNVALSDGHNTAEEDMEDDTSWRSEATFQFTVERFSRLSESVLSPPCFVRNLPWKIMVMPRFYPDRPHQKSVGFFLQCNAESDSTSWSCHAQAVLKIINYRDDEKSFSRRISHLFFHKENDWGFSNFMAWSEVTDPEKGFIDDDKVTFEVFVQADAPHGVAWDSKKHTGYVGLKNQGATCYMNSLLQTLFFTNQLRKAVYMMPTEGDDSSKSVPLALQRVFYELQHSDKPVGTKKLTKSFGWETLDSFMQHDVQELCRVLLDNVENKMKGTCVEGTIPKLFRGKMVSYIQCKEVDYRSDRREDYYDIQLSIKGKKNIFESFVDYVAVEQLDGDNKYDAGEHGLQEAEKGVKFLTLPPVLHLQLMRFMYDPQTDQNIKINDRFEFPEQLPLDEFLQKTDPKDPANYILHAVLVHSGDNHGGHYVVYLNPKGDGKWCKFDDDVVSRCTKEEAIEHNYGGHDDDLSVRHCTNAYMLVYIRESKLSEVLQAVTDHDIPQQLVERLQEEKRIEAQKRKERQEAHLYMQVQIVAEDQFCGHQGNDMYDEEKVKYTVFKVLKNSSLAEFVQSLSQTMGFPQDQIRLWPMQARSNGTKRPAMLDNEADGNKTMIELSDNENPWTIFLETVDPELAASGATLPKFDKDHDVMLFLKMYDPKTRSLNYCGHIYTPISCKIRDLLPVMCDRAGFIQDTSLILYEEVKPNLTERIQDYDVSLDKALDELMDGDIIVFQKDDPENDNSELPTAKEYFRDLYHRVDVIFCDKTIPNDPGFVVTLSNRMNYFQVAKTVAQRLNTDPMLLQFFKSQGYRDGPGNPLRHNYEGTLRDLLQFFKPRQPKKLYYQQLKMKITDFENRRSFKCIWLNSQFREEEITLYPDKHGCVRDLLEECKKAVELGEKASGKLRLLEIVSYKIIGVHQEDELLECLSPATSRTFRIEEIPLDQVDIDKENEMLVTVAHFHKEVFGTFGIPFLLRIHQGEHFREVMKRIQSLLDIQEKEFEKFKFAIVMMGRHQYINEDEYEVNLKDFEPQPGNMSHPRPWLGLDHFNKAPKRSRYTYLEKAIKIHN
Experimental: Activity for compounds described herein is provided in Table 2, wherein potency levels are provided as follows: (Potency: USP7 IC50: A<0.01 μM; B=0.01-0.1 μM; C=>0.1 μM.

CHP-134 = experiment: Cell viability (CellTiter-Glo), CHP-134; type: cell-based; details: Homo sapiens; CHP-134, neuroblastoma, MYCN amplified, p53 wild-type
Experimental: as §1, §4

MYCN = experiment: Western blot of MYCN in H526 cells; type: cell-based; details: after 2, 8 or 24 hours of treatment
Experimental: (§8) For Western blotting, compound-treated cells were lysed in RIPA lysis buffer (ThermoScientific) containing Halt Protease and Phosphatase Inhibitor Cocktail (Life Technologies). Lysates were quantified using the BCA protein assay (Pierce) and equivalent protein was separated by SDS-PAGE (4-12%, ThermoScientific). Following electrophoresis, proteins were transferred to PVDF membranes. […] Caspase activation assays were performed on compound-treated cells using the Caspase-Glo 3/7 Assay Kit (Promega) according to the manufacturer's protocol, and luminescence was measured using a CLARIOstar plate reader (BMG LABTECH). […] Data were collected using FACSCanto (Becton Dickinson) and Attune (Thermo Fisher Scientific) flow cytometers and analyzed with FlowJo software (FlowJo LLC). […] Lysates were quantified using the BCA protein assay (Pierce) and equivalent protein was used in the PathScan Phospho-S6 Ribosomal Protein (Ser235/236) Sandwich ELISA Kit (Cell Signaling) according to the manufacturer's protocol. Absorbance was measured using the Spectramax 300 plate reader (Molecular Devices).
(§9) The effect of pharmacological inhibition of USP7 on the viability of the p53 mutant small cell lung cancer cell line, H526 was further evaluated. […]

H526 xenograft = H526 xenograft model in athymic nude mice; type: in vivo
Experimental: as §6, §5

p21 = experiment: Western blot of p21 in H526 cells; type: cell-based; details: after 2, 8 or 24 hours of treatment
Experimental: as §8, §9

[2] = Tolerability in tumor-free mice (preliminary to H526 study); type: in vivo; details: preliminary testing, oral 50 mg/kg twice daily or 100 mg/kg daily
[3] = H526, lung, small cell, p53-mutant, read-out: CC50
[4] = H526, p53 mutant small cell lung cancer, CellTiter-Glo assay, read-out: CC50 (viability of H526 in vitro)
[5] = H526 xenograft, athymic nude mice, twice-daily oral 50 mg/kg (FIG. 2) or daily oral 100 mg/kg (data not shown)

For Cc1cc(Cl)cc(-c2ccnc3cc(CN4C(=O)C5CC5C4=O)sc23)c1CN1[C@@H](C)CNC[C@@H]1C (stereo partly drawn) [Example 31, 3-((7-(5-chloro-2-(((2S,6S)-2,6-dimethylpiperazin-1-yl)methyl)-3-methylphenyl)thieno[3,2-b]pyridin-2-yl)methyl)-3-azabicyclo[3.1.0]hexane-2,4-dione], the CC50 (SK-N-DZ) was 200 nM, the CC50 (EOL-1) was 40 nM and the CC50 (NCI-H929) was 400 nM. For the same molecule, the CC50 (MOLP8) was 200 nM, the CC50 (MM.1S) was 100 nM and the CC50 (LA-N-2) was 600 nM. The CC50 (NB-1) was 600 nM, the CC50 (H526; [3]) was 500 nM and the CC50 (H526; [4]) was 500 nM. It also gave a CC50 (OCI-AML5) of 200 nM, a CC50 (MOLM13) of 100 nM and a CC50 (M07e) of 100 nM. For the same molecule, the tumor growth (MM.1S xenograft; MM.1S xenograft, NOD-SCID mice, daily oral dosing at 50 mg/kg and 100 mg/kg, FIG. 1A) was “effectively inhibited MM.1S tumor growth”, the survival (MM.1S xenograft; MM.1S xenograft, NOD-SCID mice, daily oral dosing at 50 mg/kg and 100 mg/kg, FIG. 1B) was “prolonged survival in a dose-dependent manner” and the body weight (MM.1S xenograft; tumor-bearing NOD-SCID mice, longer-term xenograft study, daily oral 50 and 100 mg/kg, recovered with brief dosing holidays) was “dose-dependent body weight loss in a fraction of mice”. For the same molecule, the CC50 (SH-SY5Y) was 1800 nM, the tolerability [1] was “well tolerated” and the CC50 (HCC1937) was 100 nM. For the same molecule, the IC50 (USP7) was < 10 nM and the CC50 (CHP-134) was 500 nM.
For Cc1cc(Cl)cc(-c2ccnc3cc(CN4C(=O)C5C(C4=O)C5(C)C)sc23)c1C[C@@H]1CNCCO1 (stereo partly drawn) [Example 124, 3-((7-(5-chloro-3-methyl-2-(((R)-morpholin-2-yl)methyl)phenyl)thieno[3,2-b]pyridin-2-yl)methyl)-6,6-dimethyl-3-azabicyclo[3.1.0]hexane-2,4-dione], the CC50 (SK-N-DZ) was 200 nM, the MYCN protein levels (MYCN) was “did not reduce MYCN protein levels” and the CC50 (MM.1S) was 100 nM. For the same molecule, the CC50 (LA-N-2) was 200 nM, the CC50 (NB-1) was 500 nM and the CC50 (H526; [3]) was 500 nM. The CC50 (H526; [4]) was 500 nM, the CC50 (OCI-AML5) was 200 nM and the survival (H526 xenograft; [5]) was “prolonged survival”. The tumor growth (H526 xenograft; [5]) was “inhibited tumor growth”, the tolerability (H526 xenograft; tumor-bearing mice of the H526 study, oral 50 mg/kg twice daily or 100 mg/kg daily) was “well tolerated” and the p21 level (p21) was “did not induce any change in p21 level”. The CC50 (MOLM13) was 400 nM, the CC50 (M07e) was 200 nM and the CC50 (SH-SY5Y) was 1900 nM. For the same molecule, the tolerability [2] was “well tolerated”, the IC50 (USP7) was < 10 nM and the CC50 (CHP-134) was 600 nM.
In the case of Cc1cc(Cl)cc(-c2ccnc3cc(CN4C(=O)C5CC5C4=O)sc23)c1CC1CNCC(C)(C)O1 (stereo not shown) [Example 120, 3-((7-(5-chloro-2-((6,6-dimethylmorpholin-2-yl)methyl)-3-methylphenyl)thieno[3,2-b]pyridin-2-yl)methyl)-3-azabicyclo[3.1.0]hexane-2,4-dione], the IC50 (USP7) is reported as < 10 nM.
With Cc1cc(Cl)cc(-c2ncnc3cc(CN4C(=O)CCNC4=O)sc23)c1C[C@@H]1CNCCO1 [Example 247, (R)-3-((4-(5-chloro-3-methyl-2-(morpholin-2-ylmethyl)phenyl)thieno[3,2-d]pyrimidin-6-yl)methyl)dihydropyrimidine-2,4(1H,3H)-dione] the IC50 (USP7) was < 10 nM.
With Cc1cc(Cl)cc(-c2ncnc3cc(CN4C(=O)C5C(C4=O)C5(C)C)sc23)c1CN1C[C@@H](C)NC[C@@H]1C (stereo partly drawn) [Example 67, 3-((4-(5-chloro-2-(((2S,5R)-2,5-dimethylpiperazin-1-yl)methyl)-3-methylphenyl)thieno[3,2-d]pyrimidin-6-yl)methyl)-6,6-dimethyl-3-azabicyclo[3.1.0]hexane-2,4-dione] the IC50 (USP7) was < 10 nM.
With Cc1cc(Cl)cc(-c2ncnc3cc(CN4C(=O)CC(C)(C)CC4=O)sc23)c1CN1C[C@@H](C)NC[C@@H]1C [Example 70, 1-((4-(5-chloro-2-(((2S,5R)-2,5-dimethylpiperazin-1-yl)methyl)-3-methylphenyl)thieno[3,2-d]pyrimidin-6-yl)methyl)-4,4-dimethylpiperidine-2,6-dione] the IC50 (USP7) was 10 to 100 nM.
With Cc1cc(Cl)cc(-c2ncnc3cc(CN4C(=O)CCC4=O)sc23)c1CC1CNCC2(COC2)O1 (stereo not shown) [Example 237, 1-((4-(2-((2,5-dioxa-8-azaspiro[3.5]nonan-6-yl)methyl)-5-chloro-3-methylphenyl)thieno[3,2-d]pyrimidin-6-yl)methyl)pyrrolidine-2,5-dione] the IC50 (USP7) was < 10 nM.
